In US4405743A, “Pyrazolylpyrimidine derivatives” (Hokko Chemical Industry Co., Ltd., priority 1981, dated 1983):
Read-outs that look alike come from different tables or passages of the source.

Legend:
Pyricularia oryzae [1] = format: in vivo, Pyricularia oryzae on rice plant (variety: Asahi); conditions: rice blast, prevention; 200 ppm; 5 days after inoculation
Cochliobolus miyabeanus = assay: Effect of controlling rice brown spot, Experimental Example 3; format: in vivo, Cochliobolus miyabeanus on rice plant (variety: Asahi); conditions: sprayed liquid 500 ppm, 5 days after inoculation
rice plant [2] = conditions: blast prevention test, 200 ppm
rice plant [3] = conditions: in vivo
Pyricularia oryzae [4] = format: in vivo, Pyricularia oryzae on rice plant (variety: Asahi); conditions: rice blast, curative treatment; sprayed liquid 200 ppm; 5 days after spraying
Sphaerotheca friliginea = assay: Effect of controlling cucumber powdery mildew, Experimental Example 4; format: in vivo; conditions: sprayed liquid 200 ppm, 10 days after inoculation
Experimental: 10 ml of each of test liquids diluted to a predetermined concentration was sprayed over seedlings of a cucumber plant (variety: Sagami Hanpaku) grown up to the first leaf stage which has been soil cultured in an unglazed pot with a diameter of 9 cm in a green house. After allowing to stand overnight, the seedlings were sprayed for inoculation with a spore suspension of Sphaerotheca friliginea. Ten days after the inoculation, the rate of a lesion area (%) was checked and a control value was evaluated from the following equation. The degree of chemical injury against a cucumber plant was determined in the same manner as in Experimental Example.

rice plant [5] = conditions: blast curative test, 200 ppm

Row | SMILES | Control Value (Pyricularia oryzae [1]) [%] | Control Value (Cochliobolus miyabeanus) [%] | Degree of chemical injury (rice plant [2]) | Degree of chemical injury (rice plant [3]) | Control Value (Pyricularia oryzae [4]) [%] | Control Value (Sphaerotheca friliginea) [%] | Degree of chemical injury (rice plant [5]) | Degree of chemical injury (cucumber plant; in vivo) | Degree of chemical injury (cucumber plant; 200 ppm)
1 | Cc1cc(Oc2ccc(Cl)c(C)c2)nc(-n2nc(C)cc2C)n1 [Compound 26] | 100 | 100 | 0 | 0 | – | – | – | – | –
2 | Cc1cccc(Oc2cc(C)nc(-n3nc(C)cc3C)n2)c1 [Compound 12] | 100 | 100 | 0 | 0 | 100 | 100 | 0 | 0 | –
3 | Cc1cc(C)n(-c2nc(C)c(C)c(Sc3ccccc3)n2)n1 [Compound 39] | 100 | 78 | 0 | 0 | 100 | 100 | 0 | 0 | –
4 | Cc1cc(C)n(-c2nccc(Oc3ccccc3)n2)n1 [Compound 3] | 100 | 100 | 0 | 0 | 98 | 94 | 0 | 0 | –
5 | Cc1cc(Oc2cccc(C(F)(F)F)c2)nc(-n2nc(C)cc2C)n1 [Compound 21] | 100 | 77 | 0 | 0 | – | 86 | – | 0 | –
6 | Cc1cc(Oc2ccc(I)cc2)nc(-n2nc(C)cc2C)n1 [Compound 10] | 100 | 60 | 0 | 0 | – | – | – | – | –
7 | CCCc1c(C)nc(-n2nc(C)cc2C)nc1OC [Compound 40] | 100 | 81 | 0 | 0 | 100 | 97 | 0 | 0 | –
8 | Cc1cc(Oc2ccc([N+](=O)[O-])cc2)nc(-n2nc(C)cc2C)n1 [Compound 20] | 82 | 91 | 0 | 0 | – | 78 | – | 0 | –
9 | Cc1cc(Oc2ccc(F)cc2)nc(-n2nc(C)cc2C)n1 [Compound 9] | 100 | 100 | 0 | 0 | 100 | 100 | 0 | 0 | –
10 | CCSc1ccnc(-n2nc(C)cc2C)n1 [Compound 2] | 100 | 94 | 0 | 0 | 100 | 88 | 0 | 0 | –
11 | Cc1cc(Oc2ccccc2Cl)nc(-n2nc(C)cc2C)n1 [Compound 6] | 100 | 100 | 0 | 0 | 88 | 100 | 0 | 0 | –
12 | CCSc1nc(-n2nc(C)cc2C)nc(C)c1C [Compound 37] | 100 | 93 | 0 | 0 | 81 | 100 | 0 | 0 | –
13 | CCCCCCc1cc(Sc2ccccc2)nc(-n2nc(C)cc2C)n1 [Compound 46] | 84 | 99 | 0 | 0 | 99 | 83 | 0 | 0 | –
14 | Cc1cc(Oc2ccc(Br)cc2)nc(-n2nc(C)cc2C)n1 [Compound 8] | 100 | 61 | 0 | 0 | – | 78 | – | 0 | –
15 | CCOC(=O)c1ccc(Oc2cc(C)nc(-n3nc(C)cc3C)n2)cc1 [Compound 22] | 100 | 100 | 0 | 0 | – | – | – | – | –
16 | CCCCCCc1cc(SCC)nc(-n2nc(C)cc2C)n1 [Compound 45] | 92 | 88 | 0 | 0 | 90 | 91 | 0 | 0 | –

Row | SMILES | Control Value (Pyricularia oryzae [1]) [%] | Control Value (Cochliobolus miyabeanus) [%] | Degree of chemical injury (rice plant [2]) | Degree of chemical injury (rice plant [3]) | Control Value (Pyricularia oryzae [4]) [%] | Control Value (Sphaerotheca friliginea) [%] | Degree of chemical injury (rice plant [5]) | Degree of chemical injury (cucumber plant; in vivo) | Degree of chemical injury (cucumber plant; 200 ppm)
17 | Cc1cc(C)c(C)c(Oc2cc(C)nc(-n3nc(C)cc3C)n2)c1 [Compound 30] | 100 | 87 | 0 | 0 | 100 | 92 | 0 | 0 | –
18 | COc1ccc(Oc2cc(C)nc(-n3nc(C)cc3C)n2)cc1 [Compound 17] | 100 | 100 | 0 | 0 | 100 | 100 | 0 | 0 | –
19 | Cc1cc(Oc2ccc(C(C)C)cc2)nc(-n2nc(C)cc2C)n1 [Compound 14] | 100 | 94 | 0 | 0 | 92 | 100 | 0 | 0 | –
20 | Cc1cc(Oc2ccc(C(C)(C)C)cc2)nc(-n2nc(C)cc2C)n1 [Compound 15] | 100 | 81 | 0 | 0 | 100 | 91 | 0 | 0 | –
21 | CCSc1nc(-n2nc(C)cc2C)ncc1C [Compound 33] | 100 | 82 | 0 | 0 | 82 | 94 | 0 | 0 | –
22 | CCOc1nc(-n2nc(C)cc2C)nc(C)c1C [Compound 36] | 100 | 100 | 0 | 0 | 99 | 93 | 9 | 0 | –
23 | Cc1cc(Sc2ccc(Cl)cc2)nc(-n2nc(C)cc2C)n1 [Compound 5] | 100 | 100 | 0 | 0 | 100 | 85 | 0 | 0 | –
24 | CCCCc1c(C)nc(-n2nc(C)cc2C)nc1Sc1ccccc1 [Compound 44] | 100 | 91 | 0 | 0 | 92 | 94 | 0 | 0 | –
25 | Cc1ccc(Sc2cc(C)nc(-n3nc(C)cc3C)n2)cc1 [Compound 16] | 100 | 100 | 0 | 0 | 100 | – | 0 | – | –
26 | CCCCc1c(C)nc(-n2nc(C)cc2C)nc1Oc1ccccc1 [Compound 43] | 100 | 94 | 0 | 0 | 86 | 82 | 0 | 0 | –
27 | Cc1cc(Oc2ccc(C#N)cc2)nc(-n2nc(C)cc2C)n1 [Compound 19] | 100 | – | 0 | – | – | – | – | – | –
28 | Cc1cc(SC#N)nc(-n2nc(C)cc2C)n1 [Comparative Chemical 3] | – | – | – | 5 | – | – | – | – | –
29 | Cc1cc(Oc2ccc(Cl)c(Cl)c2)nc(-n2nc(C)cc2C)n1 [Compound 24] | 92 | 89 | 0 | 0 | 84 | – | 0 | 0 | –
30 | Cc1cc(Oc2ccc([N+](=O)[O-])c(C)c2)nc(-n2nc(C)cc2C)n1 [Compound 31] | 100 | – | 0 | – | 84 | 77 | 0 | – | 0
31 | CSc1ccc(Oc2cc(C)nc(-n3nc(C)cc3C)n2)cc1 [Compound 18] | 100 | 90 | 0 | 0 | – | – | – | – | –
